tested on: vasculature; experiment: not given; conditions: administered at the MTD; cited from earlier work

For `CC(=O)O[C@@]12CO[C@@H]1C[C@H](O)[C@@]1(C)C(=O)[C@H](O)C3=C(C)[C@@H](OC(=O)[C@H](O)[C@@H](NC(=O)OC(C)(C)C)c4ccccc4)C[C@@](O)([C@@H](OC(=O)c4ccccc4)[C@H]21)C3(C)C` [docetaxel], which vascular-damaging activity is on record?
The vascular-damaging activity was “no vascular-damaging activity”.

tested on: tumour vasculature in CaNT tumour-bearing mice; experiment: Activity against tumour vasculature measured by fluorescent dye (Hoechst 33342 functional vascular volume); type: in vivo; conditions: 50 mg/kg i.p., 24 h after drug treatment, compared to control
Text: Activity Against Tumour Vasculature Measured by Fluorescent Dye.
One minute later, animals were killed and tumours excised and frozen; 10 μm sections were cut at 3 different levels and observed under UV illumination using an Olympus microscope equipped with epifluorescence. […] All estimates were based on counting a minimum of 100 fields from sections cut at the 3 different levels. Results are expressed as percentage reduction in vascular volume compared to control.

With `COC(=O)Nc1nc2cc(Oc3ccc(OP(=O)(O)O)cc3)ccc2[nH]1` [Example 14, Methyl [5(6)-(4-phosphonooxyphenoxy)-1H-benzimidazol-2yl]carbamate] as the compound, how does the “% Reduction in vascular volume” value read?
Its value is 39%.

For `COC(=O)Nc1nc2cc(Oc3ccc(NC(C)=O)cc3)ccc2[nH]1` [Example 16, Methyl [5(6)-(4-(acetylamino)phenoxy)-1H-benzimidazol-2yl]carbamate], which “% Reduction in vascular volume” value is on record?
The value was 56%.

Which “% Reduction in vascular volume” value does the source give for `COC(=O)Nc1nc2cc(Oc3ccc(N)cc3)ccc2[nH]1` [Example 17, Methyl [5(6)-(4-aminophenoxy)-1H-benzimidazol-2yl]carbamate] here?
Its value is 62%.

With `COC(=O)Nc1nc2cc(Oc3cccc(N)c3)ccc2[nH]1` [Example 18, Methyl [5(6)-(3-aminophenoxy)-1H-benzimidazol-2yl]carbamate] as the compound, how does the “% Reduction in vascular volume” value read?
The value was 47%.

For `COC(=O)Nc1nc2cc(Sc3ccc(OP(=O)(O)O)cc3)ccc2[nH]1` [Example 3, Methyl [5(6)-(4-phosphonooxyphenylthio)-IH-benzimidazol-2yl]carbamate], which “% Reduction in vascular volume” value is on record?
The value was 22%.

With `COC(=O)Nc1nc2cc(Sc3ccc(N)cc3)ccc2[nH]1` [Example 4, Methyl [5(6)-(4-aminophenylthio)-1H-benzimidazol-2yl]carbamate] as the compound, how does the “% Reduction in vascular volume” value read?
Its value is 53%.

For `COC(=O)Nc1nc2cc(Sc3ccc(NC(=O)[C@H](C)N)cc3)ccc2[nH]1` [Example 5, Methyl [5(6)-(4-alanylaminophenylthio)-IH-benzimidazol-2yl]carbamate], which “% Reduction in vascular volume” value is on record?
Its value is 99%.

For `COC(=O)Nc1nc2cc(C(=NO)c3ccc(O)cc3)ccc2[nH]1` [Example 15, Methyl [5(6)-(4-hydroxy-@-hydroxyiminobenzyl)-1H-benzimidazol-2yl]carbamate], which “% Reduction in vascular volume” value is on record?
The value was 61%.

Which “% Reduction in vascular volume” value does the source give for `COC(=O)Nc1nc2cc(Sc3ccc(O)cc3)ccc2[nH]1` [Example 12, Methyl [5(6)-(4-hydroxyphenylthio)-1H-benzimidazol-2yl]carbamate] here?
Its value is 51%.

With `COC(=O)Nc1nc2cc(Oc3ccc(O)cc3)ccc2[nH]1` [Example 19, Methyl [5(6)-(4-hydroxyphenoxy)-1H-benzimidazol-2yl]carbamate] as the compound, how does the “% Reduction in vascular volume” value read?
Its value is 88%.

For `COC(=O)Nc1nc2cc(Oc3ccccc3O)ccc2[nH]1` [Example 20, Methyl [5(6)-(2-hydroxyphenoxy)-1H-benzimidazol-2yl]carbamate], which “% Reduction in vascular volume” value is on record?
Its value is 69%.

With `COC(=O)Nc1nc2cc(Oc3cccc(O)c3)ccc2[nH]1` [Example 21, Methyl [5(6)-(3-hydroxyphenoxy)-1H-benzimxdazol-2yl]carbamate] as the compound, how does the “% Reduction in vascular volume” value read?
The value was 74%.

same assay, conditions: 100 mg/kg i.p., 6 h after drug treatment, compared to control

For `CCCOc1ccc2[nH]c(NC(=O)OC)nc2c1` [Oxibendazole, reference compound], which “% Reduction in vascular volume” value is on record?
The value was 43%.

same assay, conditions: 100 mg/kg i.p., 24 h after drug treatment, compared to control

With `COC(=O)Nc1nc2cc(C(=O)c3cccs3)ccc2[nH]1` [Nocodazole, reference compound] as the compound, how does the “% Reduction in vascular volume” value read?
Its value is 23%.

same assay, conditions: 500 mg/kg i.p., 6 h after drug treatment, compared to control

With `COC(=O)Nc1nc2cc(C(=O)c3ccc(OP(=O)(O)O)cc3)ccc2[nH]1` [Example 2, Methyl [5(6)-(4-phosphonooxybenzoyl)-1H-benzimidazol-2yl]carbamate] as the compound, how does the “% Reduction in vascular volume” value read?
Its value is 80%.

With `CCCSc1ccc2[nH]c(NC(=O)OC)nc2c1` [Albendazole, reference compound] as the compound, how does the “% Reduction in vascular volume” value read?
The value was 51%.

For `COC(=O)Nc1nc2cc(C(=O)c3ccc(O)cc3)ccc2[nH]1` [Example 1, Methyl [5(6)-(4-hydroxybenzoyl)-IH-benzimidazol-2vl]carbamate], which “% Reduction in vascular volume” value is on record?
Its value is 81%.

For `COC(=O)Nc1nc2cc(C(=O)c3ccccc3)ccc2[nH]1` [Mebendazole, reference compound], which “% Reduction in vascular volume” value is on record?
The value was 56%.

Which “% Reduction in vascular volume” value does the source give for `COC(=O)Nc1nc2cc(Sc3ccccc3)ccc2[nH]1` [Fenbendazole, reference compound] here?
The value was 44%.
